Measurements published in ChEMBL document CHEMBL1201862, “PubChem BioAssay data set” (2004).
Activity calls are given as the source filed them.

Experiments:
[1] = Luminescence Cell-Based Dose Response to Identify Activators of 5'UTR Stem-Loop Driven Prion Protein mRNA Translation in H4-C Neuroglioblastoma Cells. [Related pubchem assays: 1829 (Project Summary), 1814 (Primary HTS)]; format: functional
H4 = test: Luminescence Cell-Based Dose Response HTS to Identify Activators of 5'UTR Stem-Loop Driven Prion Protein mRNA Translation in H4 Neuroglioblastoma Cells. [Related pubchem assays: 1829 (Project Summary), 1814 (Primary HTS)]; format: functional; settings: Homo sapiens
[2] = Luminescence Cell-Based Dose Response to Identify Activators of Luciferase Translation or Activity in H4-C Neuroglioblastoma Cells. [Related pubchem assays: 1829 (Project Summary), 1814 (Primary HTS)]; format: functional
[3] = Luminescence Cell-Based Dose Response HTS to Identify Activators of Luciferase Translation or Activity in H4 […] Cells. [Related pubchem assays: 1829 (Project Summary), 1814 (Primary HTS)]; format: functional
[4] = Luminescence Cell-Based Dose Confirmation HTS to Identify Activators of 5'UTR Stem-Loop Driven Alpha-Synuclein mRNA Translation in H4 Neuroglioblastoma Cells. [Related pubchem assays: 1829 (Project Summary), 1814 (Primary HTS)]; format: functional
[5] = Luminescence Cell-Based Dose Confirmation to Identify Activators of 5'UTR Stem-Loop Driven Alpha-Synuclein mRNA Translation in H4 Neuroglioblastoma Cells. [Related pubchem assays: 1829 (Project Summary), 1814 (Primary HTS)]; format: functional
[6] = target: T1, G-protein coupled receptor 55 (Homo sapiens, UniProt Q9Y2T6); test: inhibition of LPI-stimulated GPR55 beta-arrestin translocation – imaging, U2OS, beta-arrestin-GFP, LPI agonist, primary screen (AID 2013); format: functional;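 also: antagonist potency measured as reduced agonist-driven arrestin aggregation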
Cytochrome P450 3A4 [7] = target: T2, Cytochrome P450 3A4 (Homo sapiens, UniProt P08684); settings: Potency
[8] = target: Peroxisome proliferator-activated receptor gamma/Nuclear receptor coactivator 2 (Homo sapiens, UniProt P37231); format: functional;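 also: agonist potency for raising coactivator recruitment to the receptor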
[9] = target: Peroxisome proliferator-activated receptor gamma/Nuclear receptor coactivator 1 (Homo sapiens, UniProt P37231); format: functional;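 also: agonist potency as compounds enhance coactivator SRC-1 recruitment to PPARgamma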
[10] = target: Peroxisome proliferator-activated receptor gamma/Nuclear receptor coactivator 3 (Homo sapiens, UniProt P37231); format: functional;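 also: agonist potency for raising coactivator recruitment to the receptor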
[11] = target: Glyceraldehyde-3-phosphate dehydrogenase (Homo sapiens, UniProt P04406)
[12] = target: T3, Alkaline phosphatase, tissue-nonspecific isozyme (Homo sapiens, UniProt P05186); test: potency against alkaline phosphatase TNAP – biochemical, luminescent, dose response, SAR follow-up (AID 1056)
T3 sequence (P05186 whole entry): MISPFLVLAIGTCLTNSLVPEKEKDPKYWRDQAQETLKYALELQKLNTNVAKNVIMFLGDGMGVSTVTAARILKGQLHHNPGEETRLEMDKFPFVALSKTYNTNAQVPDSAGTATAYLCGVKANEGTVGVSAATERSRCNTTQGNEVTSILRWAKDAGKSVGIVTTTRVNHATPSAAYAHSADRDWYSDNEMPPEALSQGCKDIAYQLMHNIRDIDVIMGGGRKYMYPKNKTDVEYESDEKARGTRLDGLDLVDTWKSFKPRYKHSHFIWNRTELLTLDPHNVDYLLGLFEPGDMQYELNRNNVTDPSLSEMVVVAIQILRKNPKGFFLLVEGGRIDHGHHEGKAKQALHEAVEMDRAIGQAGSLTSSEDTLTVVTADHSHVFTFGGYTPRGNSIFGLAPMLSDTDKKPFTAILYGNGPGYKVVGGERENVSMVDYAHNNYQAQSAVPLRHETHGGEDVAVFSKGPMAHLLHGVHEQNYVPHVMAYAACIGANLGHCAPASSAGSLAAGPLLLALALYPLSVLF

Aminopeptidase N = target: T4, Aminopeptidase N (Plasmodium falciparum FcB1/Columbia, UniProt O96935); test: malaria alanyl aminopeptidase activity blockers – biochemical, fluorogenic H-Leu-NHMec substrate, 1536-well (AID 1445); parameters: species or system Plasmodium falciparum 3D7, 3D7
T4 sequence (O96935 whole entry): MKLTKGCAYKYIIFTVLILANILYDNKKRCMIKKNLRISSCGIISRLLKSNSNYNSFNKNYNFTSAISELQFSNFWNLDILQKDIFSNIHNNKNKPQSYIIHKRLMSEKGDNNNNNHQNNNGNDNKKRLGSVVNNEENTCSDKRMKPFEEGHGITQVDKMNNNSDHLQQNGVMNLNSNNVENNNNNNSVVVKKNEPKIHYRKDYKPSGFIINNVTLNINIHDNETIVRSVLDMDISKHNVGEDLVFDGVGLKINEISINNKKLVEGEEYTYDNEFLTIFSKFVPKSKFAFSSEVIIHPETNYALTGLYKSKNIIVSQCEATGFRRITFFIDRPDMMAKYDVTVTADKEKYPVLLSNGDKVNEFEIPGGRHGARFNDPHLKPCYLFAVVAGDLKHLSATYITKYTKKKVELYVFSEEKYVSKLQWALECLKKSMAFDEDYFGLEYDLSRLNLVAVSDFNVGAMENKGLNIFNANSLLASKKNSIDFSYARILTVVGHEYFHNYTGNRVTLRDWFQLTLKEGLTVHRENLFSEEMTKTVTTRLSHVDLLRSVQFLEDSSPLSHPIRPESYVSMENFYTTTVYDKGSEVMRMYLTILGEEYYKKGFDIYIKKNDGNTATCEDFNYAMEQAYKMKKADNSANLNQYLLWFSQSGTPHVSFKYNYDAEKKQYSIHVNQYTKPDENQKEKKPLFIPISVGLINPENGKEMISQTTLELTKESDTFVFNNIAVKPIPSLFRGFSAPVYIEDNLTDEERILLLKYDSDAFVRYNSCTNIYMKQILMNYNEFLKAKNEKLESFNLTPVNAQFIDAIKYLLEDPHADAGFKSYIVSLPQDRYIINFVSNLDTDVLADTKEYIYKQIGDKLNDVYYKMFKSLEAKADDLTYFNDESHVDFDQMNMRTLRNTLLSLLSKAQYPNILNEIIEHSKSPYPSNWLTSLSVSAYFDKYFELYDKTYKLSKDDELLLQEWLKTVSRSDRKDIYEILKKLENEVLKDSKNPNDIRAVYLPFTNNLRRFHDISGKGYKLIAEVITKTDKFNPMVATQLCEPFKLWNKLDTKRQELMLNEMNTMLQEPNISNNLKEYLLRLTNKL

Leucine aminopeptidase = target: T5, Leucine aminopeptidase (Plasmodium falciparum 3D7, UniProt Q8IL11); test: P. falciparum M17LAP inhibitors, primary screen, biochemical, fluorogenic H-Leu-NHMec substrate, 1536-well (AID 1619); format: functional
T5 sequence (Q8IL11 whole entry): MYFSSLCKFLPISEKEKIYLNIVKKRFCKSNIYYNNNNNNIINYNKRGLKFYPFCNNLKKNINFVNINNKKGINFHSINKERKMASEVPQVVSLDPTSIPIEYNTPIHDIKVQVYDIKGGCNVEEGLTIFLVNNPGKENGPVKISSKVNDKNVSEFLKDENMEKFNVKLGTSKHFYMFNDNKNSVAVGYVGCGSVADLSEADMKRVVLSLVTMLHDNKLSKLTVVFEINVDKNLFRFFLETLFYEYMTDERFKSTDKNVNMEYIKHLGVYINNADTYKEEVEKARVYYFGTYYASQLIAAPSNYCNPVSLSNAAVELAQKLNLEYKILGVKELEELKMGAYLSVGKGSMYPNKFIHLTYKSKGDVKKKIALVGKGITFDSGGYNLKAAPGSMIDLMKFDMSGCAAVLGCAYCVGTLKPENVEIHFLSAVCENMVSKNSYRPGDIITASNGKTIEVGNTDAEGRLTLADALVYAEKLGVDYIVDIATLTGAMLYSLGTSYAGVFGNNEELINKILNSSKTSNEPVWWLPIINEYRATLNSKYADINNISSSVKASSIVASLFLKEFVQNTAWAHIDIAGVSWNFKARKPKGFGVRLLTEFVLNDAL

Streptokinase A = target: T6, Streptokinase A (Streptococcus pyogenes serotype M1, UniProt P10520); test: viability-normalized secreted streptokinase activity reduction – plasminogen activation absorbance, OD405, dose response (AID 1914); format: functional, Streptococcus pyogenes M1 GAS;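 also: secreted streptokinase activity via plasminogen activation per viability signal from cell pellet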
T6 sequence (P10520 whole entry): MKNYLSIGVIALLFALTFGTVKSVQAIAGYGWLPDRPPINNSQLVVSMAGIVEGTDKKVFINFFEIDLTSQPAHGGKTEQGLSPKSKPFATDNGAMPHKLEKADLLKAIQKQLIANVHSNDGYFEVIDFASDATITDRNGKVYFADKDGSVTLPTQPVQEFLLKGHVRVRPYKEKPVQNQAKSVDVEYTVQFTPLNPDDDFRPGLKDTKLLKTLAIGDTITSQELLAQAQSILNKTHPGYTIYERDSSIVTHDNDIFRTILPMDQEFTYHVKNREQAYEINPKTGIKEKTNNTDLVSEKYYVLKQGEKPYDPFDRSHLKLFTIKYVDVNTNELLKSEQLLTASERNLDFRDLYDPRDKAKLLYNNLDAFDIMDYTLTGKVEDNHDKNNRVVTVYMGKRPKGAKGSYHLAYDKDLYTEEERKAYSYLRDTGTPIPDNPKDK

[13] = target: T1, G-protein coupled receptor 55; test: selective activators of receptor GPR55 – imaging, U2OS cells, beta-arrestin-GFP redistribution, primary screen (AID 1961); format: functional
Cytochrome P450 3A4 [14] = target: T2, Cytochrome P450 3A4
[15] = viability loss of HPDE-C7K cells – cell-based, fluorescence, HTS, primary screen (AID 431); format: functional; settings: Homo sapiens
Streptococcus = test: GAS UMAA2166 growth inhibition – luminescence, BacTiterGlo, counter-screen for streptokinase expression inhibitor project, dose response (AID 1915); format: functional, organism-based;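 also: potency for reduction of bacterial viability or growth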
[16] = system: Streptococcus sp. 'group A'; test: Streptococcus pyogenes SK(-)GAS viability under kanamycin – luminescence, BacTiterGlo, confirmation, counter-screen for streptokinase expression inhibitor project, dose response (AID 1900); format: functional, organism-based
[17] = target: Voltage-dependent T-type calcium channel subunit alpha-1H (Homo sapiens, UniProt O95180); format: functional;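 also: channel activity triggered by adding a high calcium stimulation buffer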
[18] = HPDE-C7 pancreatic duct cell viability loss – fluorescence, HTS (AID 430); format: functional, cell-based; settings: Homo sapiens
Cytochrome P450 2D6 = Cytochrome P450 2D6 (Homo sapiens, UniProt P10635);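 also: CYP2D6 member of a cytochrome P450 panel assay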

T1 sequence (Q9Y2T6 whole entry): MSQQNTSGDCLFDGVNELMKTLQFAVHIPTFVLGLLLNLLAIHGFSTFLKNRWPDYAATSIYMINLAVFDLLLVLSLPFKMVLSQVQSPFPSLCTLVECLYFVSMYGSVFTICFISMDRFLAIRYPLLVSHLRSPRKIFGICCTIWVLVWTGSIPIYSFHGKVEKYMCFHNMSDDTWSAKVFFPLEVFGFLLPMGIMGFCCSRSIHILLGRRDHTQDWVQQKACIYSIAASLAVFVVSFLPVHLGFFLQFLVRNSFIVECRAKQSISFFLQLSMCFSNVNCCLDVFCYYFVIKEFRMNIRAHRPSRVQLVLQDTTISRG
Sequence of Glyceraldehyde-3-phosphate dehydrogenase (P04406 whole entry): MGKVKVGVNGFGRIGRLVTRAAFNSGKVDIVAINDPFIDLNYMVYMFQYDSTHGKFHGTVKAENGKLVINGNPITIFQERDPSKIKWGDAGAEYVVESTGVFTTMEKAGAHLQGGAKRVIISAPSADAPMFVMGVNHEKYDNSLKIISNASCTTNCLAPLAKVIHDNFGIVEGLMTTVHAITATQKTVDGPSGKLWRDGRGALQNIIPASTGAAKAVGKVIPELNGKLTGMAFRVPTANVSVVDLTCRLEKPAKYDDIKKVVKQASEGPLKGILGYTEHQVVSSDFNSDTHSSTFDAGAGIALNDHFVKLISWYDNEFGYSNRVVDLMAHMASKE
T2 sequence (P08684 whole entry): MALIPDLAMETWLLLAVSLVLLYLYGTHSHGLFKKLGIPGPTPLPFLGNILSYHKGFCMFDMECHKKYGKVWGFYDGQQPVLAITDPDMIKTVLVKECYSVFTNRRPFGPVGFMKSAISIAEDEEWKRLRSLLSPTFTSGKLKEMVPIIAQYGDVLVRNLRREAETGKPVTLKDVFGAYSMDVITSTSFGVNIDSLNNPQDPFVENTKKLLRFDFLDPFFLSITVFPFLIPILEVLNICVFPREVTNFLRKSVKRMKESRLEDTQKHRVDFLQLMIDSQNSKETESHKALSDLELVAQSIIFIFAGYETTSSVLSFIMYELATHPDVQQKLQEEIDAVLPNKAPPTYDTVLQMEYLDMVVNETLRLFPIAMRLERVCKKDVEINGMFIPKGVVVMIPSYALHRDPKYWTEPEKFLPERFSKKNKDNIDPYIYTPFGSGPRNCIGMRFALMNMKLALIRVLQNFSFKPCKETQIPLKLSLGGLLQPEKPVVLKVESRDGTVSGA
Sequence of Peroxisome proliferator-activated receptor gamma/Nuclear receptor coactivator 1 (P37231 whole entry): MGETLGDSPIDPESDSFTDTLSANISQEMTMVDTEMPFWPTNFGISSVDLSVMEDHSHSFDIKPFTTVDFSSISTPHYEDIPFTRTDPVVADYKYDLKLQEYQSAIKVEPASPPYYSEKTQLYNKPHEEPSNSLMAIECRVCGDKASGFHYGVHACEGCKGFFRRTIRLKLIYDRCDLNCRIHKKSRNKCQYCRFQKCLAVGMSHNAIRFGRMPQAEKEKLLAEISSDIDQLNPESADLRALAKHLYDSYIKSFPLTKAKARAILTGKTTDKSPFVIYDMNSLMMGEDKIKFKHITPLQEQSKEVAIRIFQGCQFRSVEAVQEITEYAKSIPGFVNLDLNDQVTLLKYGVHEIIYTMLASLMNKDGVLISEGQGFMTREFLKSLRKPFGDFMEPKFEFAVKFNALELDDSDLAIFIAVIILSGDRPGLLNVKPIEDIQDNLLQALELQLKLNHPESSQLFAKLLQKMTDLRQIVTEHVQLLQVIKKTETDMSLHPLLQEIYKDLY
Sequence of Peroxisome proliferator-activated receptor gamma/Nuclear receptor coactivator 1 (Q15788 whole entry, further chain): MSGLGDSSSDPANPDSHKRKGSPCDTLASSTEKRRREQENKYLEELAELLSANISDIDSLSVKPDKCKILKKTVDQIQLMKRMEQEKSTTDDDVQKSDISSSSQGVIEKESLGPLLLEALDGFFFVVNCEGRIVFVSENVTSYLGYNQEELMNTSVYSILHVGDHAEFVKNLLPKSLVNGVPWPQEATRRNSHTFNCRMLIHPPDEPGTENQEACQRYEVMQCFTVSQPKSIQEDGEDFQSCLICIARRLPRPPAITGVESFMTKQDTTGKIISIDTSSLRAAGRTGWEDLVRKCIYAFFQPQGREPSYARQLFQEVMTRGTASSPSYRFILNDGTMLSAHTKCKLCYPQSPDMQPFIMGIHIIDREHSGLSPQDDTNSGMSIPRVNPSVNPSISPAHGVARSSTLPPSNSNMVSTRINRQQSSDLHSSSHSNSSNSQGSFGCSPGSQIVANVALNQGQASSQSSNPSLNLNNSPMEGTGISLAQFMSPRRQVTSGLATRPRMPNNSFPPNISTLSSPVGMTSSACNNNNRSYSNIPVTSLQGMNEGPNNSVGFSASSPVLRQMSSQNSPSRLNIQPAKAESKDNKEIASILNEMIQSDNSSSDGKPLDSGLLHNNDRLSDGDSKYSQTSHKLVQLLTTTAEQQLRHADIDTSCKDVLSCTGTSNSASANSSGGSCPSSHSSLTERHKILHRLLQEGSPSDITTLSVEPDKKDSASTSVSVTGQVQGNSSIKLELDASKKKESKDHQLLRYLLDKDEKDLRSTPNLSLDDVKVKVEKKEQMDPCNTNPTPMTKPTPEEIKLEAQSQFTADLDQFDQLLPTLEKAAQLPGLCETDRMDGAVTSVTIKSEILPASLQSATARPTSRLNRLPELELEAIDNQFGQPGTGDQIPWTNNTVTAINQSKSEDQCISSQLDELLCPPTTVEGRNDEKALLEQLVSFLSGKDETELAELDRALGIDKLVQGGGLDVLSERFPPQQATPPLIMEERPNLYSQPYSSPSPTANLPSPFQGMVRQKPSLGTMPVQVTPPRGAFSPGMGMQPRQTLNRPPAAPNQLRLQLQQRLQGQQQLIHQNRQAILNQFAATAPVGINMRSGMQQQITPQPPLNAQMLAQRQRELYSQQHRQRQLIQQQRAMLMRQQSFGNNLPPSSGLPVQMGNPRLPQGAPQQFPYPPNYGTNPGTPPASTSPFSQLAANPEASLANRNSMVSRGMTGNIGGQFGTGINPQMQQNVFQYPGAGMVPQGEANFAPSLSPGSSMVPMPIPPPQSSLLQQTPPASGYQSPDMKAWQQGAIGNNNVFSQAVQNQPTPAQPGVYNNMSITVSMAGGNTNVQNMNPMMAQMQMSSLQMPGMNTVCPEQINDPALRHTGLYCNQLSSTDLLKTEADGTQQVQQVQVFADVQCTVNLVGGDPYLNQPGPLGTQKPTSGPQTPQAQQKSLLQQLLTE
Sequence of Peroxisome proliferator-activated receptor gamma/Nuclear receptor coactivator 3 (P37231 whole entry): as the sequence (P37231 whole entry) above
Sequence of Peroxisome proliferator-activated receptor gamma/Nuclear receptor coactivator 3 (Q9Y6Q9 whole entry, further chain): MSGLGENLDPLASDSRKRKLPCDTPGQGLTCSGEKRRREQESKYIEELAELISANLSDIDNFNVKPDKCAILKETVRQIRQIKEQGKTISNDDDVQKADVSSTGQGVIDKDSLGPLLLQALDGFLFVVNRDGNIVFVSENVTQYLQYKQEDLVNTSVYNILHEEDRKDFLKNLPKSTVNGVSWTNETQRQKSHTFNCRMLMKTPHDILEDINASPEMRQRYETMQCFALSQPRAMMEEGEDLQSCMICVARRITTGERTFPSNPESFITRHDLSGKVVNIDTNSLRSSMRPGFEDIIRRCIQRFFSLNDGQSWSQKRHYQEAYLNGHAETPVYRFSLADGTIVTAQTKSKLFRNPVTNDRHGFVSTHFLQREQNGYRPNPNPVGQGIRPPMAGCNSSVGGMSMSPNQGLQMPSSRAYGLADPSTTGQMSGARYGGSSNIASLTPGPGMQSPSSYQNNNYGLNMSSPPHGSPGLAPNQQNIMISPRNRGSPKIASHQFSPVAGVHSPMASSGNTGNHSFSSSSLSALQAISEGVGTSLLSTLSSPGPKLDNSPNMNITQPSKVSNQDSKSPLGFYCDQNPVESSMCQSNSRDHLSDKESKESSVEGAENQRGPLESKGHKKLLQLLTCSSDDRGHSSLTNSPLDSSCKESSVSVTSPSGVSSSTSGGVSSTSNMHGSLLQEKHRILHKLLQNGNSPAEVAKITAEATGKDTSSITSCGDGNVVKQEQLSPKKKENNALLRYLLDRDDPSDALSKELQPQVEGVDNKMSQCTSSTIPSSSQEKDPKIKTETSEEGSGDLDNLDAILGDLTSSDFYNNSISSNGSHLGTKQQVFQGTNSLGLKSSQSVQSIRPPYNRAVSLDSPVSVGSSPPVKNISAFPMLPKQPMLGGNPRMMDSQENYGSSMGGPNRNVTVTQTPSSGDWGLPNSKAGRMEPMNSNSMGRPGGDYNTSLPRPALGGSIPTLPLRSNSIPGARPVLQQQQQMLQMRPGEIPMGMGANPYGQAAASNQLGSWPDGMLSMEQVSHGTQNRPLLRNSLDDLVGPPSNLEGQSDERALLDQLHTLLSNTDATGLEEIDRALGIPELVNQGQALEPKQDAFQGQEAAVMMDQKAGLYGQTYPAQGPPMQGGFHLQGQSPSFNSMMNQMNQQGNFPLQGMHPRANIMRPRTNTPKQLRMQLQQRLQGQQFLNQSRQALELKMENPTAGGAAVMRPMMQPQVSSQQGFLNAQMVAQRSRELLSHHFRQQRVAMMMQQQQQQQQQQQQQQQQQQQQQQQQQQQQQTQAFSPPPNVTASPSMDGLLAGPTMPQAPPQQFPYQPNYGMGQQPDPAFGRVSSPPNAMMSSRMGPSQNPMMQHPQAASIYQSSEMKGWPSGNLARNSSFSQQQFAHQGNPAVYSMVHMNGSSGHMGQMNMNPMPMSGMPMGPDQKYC

## O=C(CSc1nnnn1C1CCCC1)N1CCCCC1
[1]
  EC50: 0.537 µM (active)
H4
  EC50: > 120 µM (not active)
[2]
  EC50: 0.57 µM (active)
[3]
  EC50: < 0.1 µM (active)
[4]
  EC50: 0.118 µM (active)
[5]
  EC50: 0.524 µM (active)

## CN1C(=O)/C(=C/c2c[nH]nc2-c2ccccc2)SC1=S
[6]
  IC50: 0.653 µM (active)

## COc1ccc(-c2nc3c(c4c2CC(C)OC4)CN(CCC(C)C)CC3)cc1 (centres undefined)
Cytochrome P450 3A4 [7]
  AC50: 3.16 µM (inconclusive)

## O=C(NC1CCCCCCC1)NC1CCCCC1
[1]
  EC50: 1.84 µM (active)
H4
  EC50: > 120 µM (not active)
[2]
  EC50: 1.12 µM (active)
[3]
  EC50: 5.81 µM (active)
[5]
  EC50: > 12 µM (not active)

## CC1(C)Cc2c(C#N)c(SCC(=O)c3ccccc3)nc(N3CCOCC3)c2CO1
[8]
  EC50: 79.4 µM (not active)
[9]
  EC50: > 79.4 µM (not active)
[10]
  EC50: > 79.4 µM (not active)

## COc1cc(N(O)O)ccc1S(=O)(=O)Nc1cnc2ccccc2c1
[11]
  IC50: > 100 µM (not active)
[12]
  IC50: 0.74 µM (active)

## CCCN(CCC)C(=O)CSc1nc2c(sc(=S)n2-c2ccc(OCC)cc2)c(=O)[nH]1
Aminopeptidase N
  IC50: 68.3 µM (active)
[6]
  IC50: 1.77 µM (active)

## O=C(CN1C(=O)c2ccccc2S1(=O)=O)NCCSc1ccccc1
Leucine aminopeptidase
  IC50: 5.54 µM (active)

## FC(F)(F)c1ccc(CN2C[C@@H]3C(c4ccc(C(F)(F)F)cc4)C4(c5ccccc5)CC3(C4)[C@H]2c2ccccc2)cc1 (some centres undefined)
Cytochrome P450 3A4 [7]
  AC50: 0.316 µM (inconclusive)

## CC(=O)c1cccc(NC(=O)c2cc3ccccn3n2)c1
[8]
  EC50: > 79.4 µM (not active)
[9]
  EC50: > 79.4 µM (not active)
[10]
  EC50: > 79.4 µM (not active)

## CCCCCn1c(CN2CCN(c3cc(Cl)ccc3C)CC2)nc2c1c(=O)[nH]c(=O)n2C
Streptokinase A
  EC50: > 150 µM (not active)
[13]
  EC50: 4.7 µM (active)
Cytochrome P450 3A4 [14]
  AC50: 2.24 µM (inconclusive)
[15]
  EC50: > 20 µM (not active)
Streptococcus
  EC50: 5.85 µM (active)
[16]
  EC50: 4.65 µM (active)
[17]
  EC50: 5.57 µM (active)
[18]
  EC50: 12.8 µM (active)

## CCOC(=O)C(=Cc1ccc(-c2ccsc2C(=O)OC)o1)C(=O)OCC
[13]
  EC50: 18.4 µM (inactive)
Cytochrome P450 3A4 [14]
  AC50: 39.8 µM (inconclusive)
Cytochrome P450 2D6
  AC50: 39.8 µM (inconclusive)

## COc1ccc(OC)c(C(=O)Nc2cnc3ccccc3c2)c1
[11]
  IC50: > 100 µM (not active)
[12]
  IC50: > 100 µM (inactive)

## C=C(C)C(O)/C=C/CCCCCCC (centres undefined)
Cytochrome P450 3A4 [7]
  AC50: 3.98 µM (inconclusive)

## CCc1ccc(OC)c(S(=O)(=O)Nc2cccnc2)c1
[11]
  IC50: > 100 µM (not active)
[12]
  IC50: 1.72 µM (active)

## CC1CCN(Cc2c(C(=O)N/N=C/c3ccc(OC(C)C)cc3)nnn2-c2nonc2N)CC1
[13]
  EC50: 3.41 µM (active)

## CC(/C=N/NC(=O)c1nnn(-c2nonc2N)c1CN1CCCCC1)=C\c1ccccc1
[13]
  EC50: < 0.5 µM (active)

## COc1ccc(C)cc1N
Cytochrome P450 3A4 [7]
  AC50: 31.6 µM (inconclusive)
